Patent US10065927B2, “α-ketoacylic isoniazid compounds, process for producing said compounds, use of the compounds in the treatment of tuberculosis” (priority 2015, dated 2018)
Values after ≈ are worked out from the molar mass of the structure shown. “Also recorded” adds a separate entry of the source. Read-outs that look alike come from different tables or passages of the source.

Experiments:
[1] = tested on: Mycobacterium tuberculosis strain H37Rv ATCC 27294; assay: Antimycobacterial evaluation, MIC by microplate Alamar Blue Assay, retested by BACTEC MGIT 960-TB; format: cell-based; conditions: for MIC: M. tuberculosis strain H37Rv ATCC 27294, sensitive to first-choice drugs; for antimycobacterial activity (in words): against M. tuberculosis
[2] = tested on: J77-4 lineage murine macrophages; format: cell-based; conditions: mouse
Experimental: The cytotoxicity evaluation of compound 2 was performed with J77-4 lineage murine macrophages.

[3] = Mycobacterium tuberculosis, read-out: MIC
[4] = strains sensitive to first-choice drugs

Compound NC(=O)c1cnccn1 [Pyrazinamide, reference compound] has an MIC [1, 3] of 813 µM (≈ 100 µg/mL).
In the case of O=C(NNC(=O)c1ccncc1)C(=O)c1ccccc1NC(=O)c1ccccc1 [Compound 4, reference compound], the MIC ([1]; read-out: MIC) is reported as 8.04 µM (≈ 3.12 µg/mL) and the “antimycobacterial activity (in words)” value [1] is reported as “did not show good activity”.
NNC(=O)c1ccncc1 [Isoniazid] showed an MIC [1, 3] of 0.73 µM (≈ 0.1 µg/mL).
CC[C@@H](CO)NCCN[C@@H](CC)CO [Etambutol, ethambutol, reference compound] gave an MIC [1, 3] of 15.9 µM (≈ 3.25 µg/mL).
For CC(=O)NNC(=O)c1ccncc1 [2-acetylisomide, 2-acetylisoniazide, reference compound], the MIC [1] was “Inactive” and the “antimycobacterial activity (in words)” value [1] was “did not show antimycobacterial activity”.
For CC(=O)Nc1ccccc1C(=O)C(=O)NNC(=O)c1ccncc1 [Compound 2, N-(2-(2-(2-Isonicotinoylhydrazine)-2-Oxoacetyl)Phenyl) Acetamide], the MIC [1, 3] was 0.37 µM (≈ 0.121 µg/mL), the “antimycobacterial activity (in words)” value [1] was “antimycobacterial activity superior to all the first-choice drugs; also recorded: higher potency than all the first-choice drugs” and the “activity relative to pyrazinamide” value [1, 4] was “almost two thousand and two hundred times more active than pyrazinamide”. The “potency relative to ethambutol” value [1, 4] was “more than forty times more potent than ethambutol”, the “potency relative to isoniazid” value [1, 4] was “twice as potent as isoniazid” and the “potency relative to rifampicin” value [1, 4] was “more than three times more potent than rifampicin”. The “Cell Viability (%)” value ([2]; 1 nM) was 96.8%, the “Cell Viability (%)” value ([2]; 10 nM) was 97.8% and the “Cell Viability (%)” value ([2]; 100 nM) was 97.9%. The “Cell Viability (%)” value [2]; 1 was 97.4%, the “Cell Viability (%)” value [2]; 10 was 97.3% and the “Cell Viability (%)” value [2]; 100 was 98.2%.
